# Experimental data published in US20040214762A1, “Use of inhibitors of proline endopeptidase to modulate inositol (1,4,5) triphosphate concentration dependent on intracellular signal cascades” (priority 2001, published 2004).
# Tests used:
# [1] = molecular target: T1, purified recombinant human prolyl endopeptidase (Homo sapiens, UniProt P48147); test: Determination of IC50 with Z-Gly-Pro-AMC; assay type: biochemical; details: Z-Gly-Pro-AMC 10 μM, 37° C., 60 min
# T1 sequence (P48147 1-710): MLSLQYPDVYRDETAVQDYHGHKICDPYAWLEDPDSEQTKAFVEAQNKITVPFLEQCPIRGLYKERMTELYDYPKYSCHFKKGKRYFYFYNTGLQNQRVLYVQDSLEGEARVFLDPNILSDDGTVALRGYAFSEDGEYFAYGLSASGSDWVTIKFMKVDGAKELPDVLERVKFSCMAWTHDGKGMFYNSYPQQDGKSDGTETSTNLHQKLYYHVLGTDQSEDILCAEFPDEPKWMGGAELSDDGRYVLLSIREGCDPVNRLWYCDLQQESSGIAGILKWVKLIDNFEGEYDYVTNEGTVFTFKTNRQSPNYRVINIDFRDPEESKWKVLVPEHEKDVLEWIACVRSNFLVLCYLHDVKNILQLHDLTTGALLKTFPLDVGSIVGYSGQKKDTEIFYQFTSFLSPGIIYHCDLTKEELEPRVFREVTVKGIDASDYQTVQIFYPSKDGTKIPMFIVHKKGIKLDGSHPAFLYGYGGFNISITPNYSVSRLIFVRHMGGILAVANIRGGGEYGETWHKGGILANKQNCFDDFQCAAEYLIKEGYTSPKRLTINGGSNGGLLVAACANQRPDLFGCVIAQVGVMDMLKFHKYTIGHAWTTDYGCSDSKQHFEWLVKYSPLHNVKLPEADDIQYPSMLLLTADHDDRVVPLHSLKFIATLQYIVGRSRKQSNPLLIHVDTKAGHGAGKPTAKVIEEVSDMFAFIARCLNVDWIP
# Description: 100 μl inhibitor stock solution were mixed with 100 μl buffer (EPES pH7.6) and 50 μl substrate (Z-Gly-Pro-AMC, final concentration 10 μM). Reaction was started by addition of 20 μl purified recombinant human prolyl endopeptidase. Fluorescence measurement was performed at 37° C. and λexiatation=380 nm, λemission=465 nm for 60 min using a plate reader (HTS7000plus, Applied Biosystems, Weiterstadt, Germany). The final inhibitor concentrations ranged between 1 pM and 10 μM. For calculation of the IC50 value Prism 3″ (Graphpad) was used. The IC50-value of Benzyl-N-[1-(cyclopentylcarbonyl)-2-methylbutyl]carbamate was calculated as of IC50=8,91*10^−7 M
# [2] = molecular target: T2, intracellular PEP activity (Homo sapiens, UniProt P48147); test: Inhibition of intracellular PEP activity in U343 cells (Z-Gly-Pro-NHMec); assay type: cell-based
# T2 construct: endogenous in cells; host or cells: U343 human astro glioma cells (wild type)
# T2 sequence (P48147 1-710): T1 sequence (P48147 1-710)
# Description: (§1) Two different approaches were chosen to influence the intracellular activity of PEP in U343 cells. Fmoc-Ala-Pyrr-CN is a potent and specific inhibitor for PEP (9), with an observed Ki value of 70 pM against recombinant human PEP (data not shown). It has been shown that this inhibitor is able to penetrate the cell membrane and inhibit PEP intracellularly (10). […] This inhibition is observed for up to 12 hours without adding fresh inhibitor. In addition, a totally different approach of reducing PEP activity was employed by generating antisense cell lines displaying reduced expression of the target enzyme.
# For the determination of PEP activity, U343 wild-type and PEP antisense cells (1×10^7) were harvested by washing twice in phosphate buffered saline (GIBCO BRL) and resuspended in 200 μl assay buffer (50 mM HEPES pH 7.5; 200 mM NaCl; 1 mM EDTA; 1 mM DTT). […] The protein concentration in the supernatant was determined according to the method of Bradford (5). PEP activity was measured in assay buffer using the fluorogenic substrate Z-Gly-Pro-NHMec (10 μM) (Bachem) on a Kontron spectrofluorometer SFM 25 (excitation 380, emission 460) equipped with a four-cell changer and controlled by an IBM-compatible personal computer. The obtained data were analyzed with the software Flucol (6).
# [3] = molecular target: T3, PEP (Homo sapiens, UniProt P48147); test: Ki against recombinant human PEP; assay type: biochemical; details: data not shown
# T3 sequence (P48147 1-710): T1 sequence (P48147 1-710)
# Description: as §1
# [4] = system: IP3 concentration in U343 cells; test: IP3 concentration in U343 cells treated with PEP inhibitor (isotope dilution method); assay type: cell-based, human
# Description: (§2) To characterize the intracellular function of PEP, the IP3 concentration in the antisense cell lines Was measured. Cells were grown in 25 cm^2 culture flasks to nearly 100% confluence. IP3 concentration was determined by an isotope dilution method (Amersham Phamacia Biotech) using 0.5×10^6 cells per measurement. To inhibit intracellular PEP, the cells were washed twice with PBS and incubated for 4 hours in Optimem 1 medium (GIBCO BRL) supplemented with 5 μM PEP-inhibitor Fmoc-alanyl-pyrroline-2-nitrile (Fmoc-Ala-Pyrr-CN). All measurements were done in quadruplicate. The calculation of IP3 concentration and the statistical analysis (t-test) were performed using Prism 3.0 (Graph Pad Software).
# To use an alternative approach suppressing PEP activity in U343 cells, the cells were incubated for 3 hours in presence of the specific inhibitor Fmoc-Ala-Pyrr-CN (5 μM). The influence of DMSO, necessary for dissolving the inhibitor, was excluded by adding the same amount (0.05%) of DMSO to the media of control cells. […] However, the observed changes in IP3 concentration were only 0.16 pmol/10^6 cells. This is much lower than the observed change on IP3 concentration in cell line as-11 still having 30% remaining PEP activity, and calls into question the correlation between PEP activity and IP3 concentration. […] Moreover, the lower concentration of IP3 measured after 24 hours reflects the slight recovery of PEP activity at that time point. The total amount of IP3 after 12 hours (1.69±0.1) pmol/10^6 cells; n=4) is higher than the concentration measured in cell line as-11 (0.9±0.07 pmol/10^6 cells; n=4), displaying 30% remaining enzyme activity.
# [5] = system: IP3 concentration in U343 cells; test: IP3 concentration in U343 cells after stimulation by substance P; assay type: cell-based, human; details: for difference in IP3 concentration by inhibition: 5 μM inhibitor 12 hours
# Description: as §2, with “To inhibit intracellular PEP, the cells were washed twice with PBS and incubated for 4 hours in Optimem 1 medium (GIBCO BRL) supplemented with 5 μM PEP-inhibitor Fmoc-alanyl-pyrroline-2-nitrile (Fmoc-Ala-Pyrr-CN).” left out
# Wild-type and PEP antisense U343 cell lines were cultured in duplicate in 21 cm^2 culture dishes (Greiner) until confluence. Prior to stimulation the cells were washed twice in PBS and preincubated for 10 h in Optimem1 medium containing 1.6 μg/ml leupeptin (Sigma), 0.86 μg/ml chymostatin (Sigma), and 40 μg/ml bacitracin (Sigma) at 37° C. and 5% CO2. Substance P (Bachem) was added to obtain a final concentration of 1×10^−6 M and the incubation was stopped at the indicated time by rapidly aspirating the medium and adding of 0.4 ml ice cold trichloric acid. Preparation of samples and measurement of IP3 concentration were performed as described above.
# [6] = molecular target: T3, PEP; test: Degradation of substance P in serum free medium of U343 cells (MALDI-TOF MS); assay type: in vitro ADME; set-up: endogenous in cells; host or cells: U343 human astro glioma cells (wild type); details: serum free Optimem1 medium of U343 cells, 10 min; data not shown
# Description: Using RT-PCR, the occurrence of substance P specific neurokinin receptors (NK-R) in U343 cells was investigated. PCR products could be obtained for two receptors displaying an appropriate size (FIG. 5). […] Being aware that substance P is an excellent in vitro substrate for PEP, we investigated potential degradation of substance P during the incubation time in the serum free Optimem1 medium of U343 cells by MALDI-TOF MS analysis. […] This is in agreement with the fact that no PEP activity is measurable in the medium (FIG. 6).
molecule,measurement,setting,value
CCC(C)C(NC(=O)OCc1ccccc1)C(=O)C1CCCC1 (stereo not shown) [Benzyl-N-[1-(cyclopentylcarbonyl)-2-methylbutyl]carbamate],IC50,[1],891 nM
Fmoc-alanyl-pyrroline-2-nitrile [Fmoc-Ala-Pyrr-CN],duration of inhibition without adding fresh inhibitor,[2]; 5 μM,up to 12 hours
same,inhibition of intracellular PEP activity,[2]; 5 μM in medium,total inhibition
same,Ki,[3],0.07 nM
same,change in IP3 concentration,"[4]; 5 μM, 3 hours incubation",0.16 pmol/10^6 cells
same,total amount of IP3,"[4]; 5 μM, after 12 hours total inhibition, n=4",1.69±0.1 pmol/10^6 cells
same,time to maximum IP3 concentration,[4]; single treatment 5 μM,12 h
same,difference in IP3 concentration by inhibition,[5]; U343 cells stimulated with 1 μM substance P 5 sec,7.9 pmol/10^6 cells
same,"kinetic profile of IP3 stimulation by substance P, inhibitor treated vs control cells","[5]; U343 wild-type cells, 5 μM for 12 hours, 1 μM substance P","slight increased, but similar pattern"
same,proportional difference in IP3 concentration by inhibition,[5]; non stimulated U343 cells,5.5 fold
same,difference in IP3 concentration by inhibition,[5]; non stimulated U343 cells,1.7 pmol/10^6 cells
same,proportional difference in IP3 concentration by inhibition,[5]; substance P stimulated U343 cells,1.7 fold
"substance P: neuropeptide (Bachem), peptide hormone used to stimulate U343 cells",PEP specific degradation,[6],no PEP specific degradation was observed
same,time of maximum IP3 concentration after stimulation,"[5]; U343 wild-type untreated or inhibitor treated and as-2 cells, 1 μM substance P",5 s
same,rise of IP3 concentration by substance P stimulation,"[5]; wild-type U343 cells, 1 μM substance P, 5 sec",about 14 fold
same,IP3 concentration after substance P stimulation,"[5]; wild-type U343 cells, 1 μM substance P, 5 sec, n=4",5.4±0.49 pmol/10^6 cells
